Laboratory results as given in publication PMC11359531, “Establishment of Dissolution Test Method for Multi-Components in Traditional Chinese Medicine Preparations Based on In Vitro–In Vivo Correlation” (Pharmaceuticals, 2024).
In brackets after ≈: the same amount, converted by molar mass. Several values for one entry are separate records, joined by “and”; a condition that tells them apart may be missing. Identical values can stand only once.

Columns and labels:
[1] = Pharmacokinetic study of the Q-markers in beagle dogs; conditions: beagle, dog, in vivo
Protocol: An ACQUITY UPLC system from Waters was used for chromatography separation, equipped with a Waters Cortecs C18 column (1.7 μm, 2.1 mm × 50 mm) operated at a flow rate of 0.30 mL/min. The column temperature and auto-sampler temperature were set as 45 °C and 4 °C, respectively. The mobile phases were 10 mM ammonium acetate solution (pH 5.0 by acetic acid) (A) and acetonitrile (B) and the gradient elution used was as follows: 30–39% B from 0–3.3 min, 39–95% B from 3.3–5.4 min, 95% B from 5.4–7.4 min, 95–30% B from 7.4–13.5 min, and 30% B from 13.5–16.0 min. The injection volume was 3 μL. The AB SCIEX Qtrap™ 6500 LC-MS/MS system with electron spray ionization (ESI) source in multiple reaction monitoring (MRM) mode was used for MS analysis. The detection was performed under the following conditions: source temperature (at set point) at 550.0 °C, positive ion mode, GS1 at 40 psi, GS2 at 40 psi, CUR at 45 psi, CXP at 15 V, DP at 100 V, and EP at 10 V. Quantitative analysis of analytes in MRM mode was used to determine the transition of precursor ions to specific product ions (m/z): tetrahydropalmatine, m/z […] [M + H]+ → m/z 229.0 (collision energy, CE: 17 V), corydaline, m/z […] (CE: 17 V), protopin, m/z […] [M + H]+ → m/z 227.1 (CE: 23 V), allocryptopine, m/z […] [M + H]+ → m/z 373.2 (CE: 17 V), and byakangelicin, m/z 389.2 [M + H]+ → m/z 363.1 (CE: 17 V). The data were processed using MultiQuant™ 2.1 software purchased from SCIEX.
(§1) The standard solutions of tetrahydropalmatine, corydaline, protopin, α-allocryptopine, and byakangelicin were prepared by dissolving them in acetonitrile to obtain a mixed standard stock solution, which was further diluted with acetonitrile to prepare a series of different concentration gradient mixed standard solutions. An internal standard solution of 25 ng/mL was prepared from betamethasone solution (500 μg/mL) diluted with acetonitrile. Blank dog blood was collected through intravenous blood sampling, and plasma was obtained by centrifugation. To prepare the standard plasma sample, 25 μL of the mixed standard solution was added to 100 μL of blank plasma, and 400 μL of acetonitrile was added and vortexed for protein precipitation. The supernatant was acquired by centrifugation and blown dry with nitrogen. Then, 100 μL of acetonitrile was added to the dried supernatant, and the resulting solution was mixed to gain the standard plasma sample. Different mixed standard solution including a serial of concentrations of tetrahydropalmatine: 0.625–25 ng/mL, corydaline: 0.625–25 ng/mL, protopin: 0.1–4 ng/mL, α-allocryptopine: 0.1–4 ng/mL, byakangelicin: 18.75–750 ng/mL were applied to prepare standard plasma sample and quality control (QC) samples of plasma as follows: 1.25, 5, and 20 ng/mL for tetrahydropalmatine and corydaline, 0.2, 0.8, and 3.2 ng/mL for protopin and α-allocryptopine, and 37.5, 150, and 600 ng/mL for byakangelicin.
For pharmacokinetic study, six beagle dogs were used and housed in a professional animal breeding room with a relative humidity of 55–60% and a temperature of 25 °C for one week. The experimental operation was carried out in accordance with ethical requirements for animal experiments and approved by the Institutional Animal Care and Use Committee of the School of Pharmacy, Fudan University. The dogs had free access to drinking water and were fasted for 24 h before the experiment. The dogs were randomly divided into two groups, one group receiving an oral dose of 12 tablets with brand A (tetrahydropalmatine 2.5 mg, corydaline 0.963 mg, protopin 1.896 mg, α-allocryptopine 0.917 mg, and byakangelicin 2.783 mg), while the other group were given an intravenous dose of 2 mL of normal saline containing tetrahydropalmatine 19.75 μg, corydaline 4.54 μg, protopin 168.062 μg, α-allocryptopine 297.16 μg, and byakangelicin 78.68 μg. Blood samples of 2 mL were taken at 15, 30, 45, 60, 90, 120, 150, 180, 240, 360, 480, 720, and 1440 min after dosing.

[2] = Unit impulse response (UIR) fitting of pharmacokinetic data; conditions: best-fitted UIR, Akaike model
Source text: The Phoenix WinNonlin IVIVC tool was utilized to evaluate the relationship between in vivo drug dissolution rate and blood drug concentration, which utilizes the Unit Impulse Response (UIR) function for this purpose. By using intravenous administration as the input for the unit impulse response, the influence of drug absorption can be eliminated. The obtained UIR function will be utilized for the deconvolution of pharmacokinetic data to obtain the curve of cumulative drug absorption over time [50]. (8) Y(t)=A×exp[Alpha×(t×Ka−tlag)] in which Y(t) is unit impulse response, A is the coefficient value, Alpha is the exponential value, Ka is the absorption rate constant, tlag is the lag time.

[3] = Solubility of Q-markers in dissolution media, dose number D0; conditions: for solubility at 24 h: thermodynamic from solid
Protocol: The solubility of the compounds was determined at physiologically relevant pH values (0.1 M of HCl, pH 1.2; acetate buffer, pH 4.5; and phosphate buffer, pH 6.8) as those in dissolution medium, by adding excess compounds to specific medium, vortexing for 30 s, and shaking for 24 h at 37 °C and 120 rpm using a constant temperature shaker. The supernatant was then diluted with an appropriate amount of methanol, and the concentration of each compound was determined using the HPLC method described in Section 3.2. The solubility was evaluated using the dose (D0) values [48], which describe the relationship between solubility and maximum dose strength according to Equation (1). […] (1) D0=M0/V0/CS
M0 was the highest dose of each component under single administration, it should be noted that since there is no sense of the maximum oral dose for the ingredients in herbal preparation, the content of each component in a single dose of the preparation is taken as the maximum administered dose.

[4] = Stability of Q-markers in plasma; design: species or system dog; conditions: n = 6
Protocol: as §1, with “[…],” for “0.2, 0.8, and 3.2 ng/mL for protopin and α-allocryptopine,”

[5] = External validation of IVIVC model with another brand of YZTs; conditions: beagle, dog, blood, po
Source text: In order to further apply the identified in vivo correlated dissolution conditions to different batches of YZTs, another brand of YZTs was selected for external validation of the dissolution conditions and IVIVC model results. The dissolution data of different brands in the identified media were input into the established IVIVC model to obtain the predicted blood concentration–time curve and to compare the PE% between the predicted value and the actual value.

[6] = D0 = M0/V0/Cs, V0 = 250 mL, content of a single dose of YZTs

## COc1ccc2c(c1OC)CN(C)CCc1cc3c(cc1C(=O)C2)OCO3 [α-allocryptopine]
[1]; iv
  AUC(0-inf): 39.6 ng·h/mL
  AUC(0-t): 35.9 ng·h/mL
  Cmax: 32.8 ng/mL
  Tmax: 0.0833 h
  half-life: 5.52 h
[1]; po
  AUC: 8.31 ng·h/mL
  AUC(0-inf): 9.12 ng·h/mL
  AUC(0-t): 8.31 ng·h/mL
  Cmax: 3.51 ng/mL
  Tmax: 1 h
  bioavailability: 7.5%
  half-life: 8.39 h
[2]
  UIR parameter A1, Estimate: 0 ng/mL
  UIR parameter Ka, Estimate: 5.65 h⁻¹
  UIR parameter Tlag, Estimate: 0.67 h
  UIR parameter alpha1, Estimate: 1.13 h⁻¹
[3]; 0.1 M HCl, 37 °C, pH 1.2, simulated gastric fluid
  solubility at 24 h: 48.7 ± 4.08 µg/mL (≈ 132 µM)
[3]; [6]
  D0, 0.1 M HCl: 0.5441 and <1
  D0, Acetate Buffer: 0.5786 and <1
  D0, Phosphate Buffer: 0.5928 and <1
[3]; acetate buffer, 37 °C, pH 4.5, aqueous buffer
  solubility at 24 h: 45.8 ± 2.56 µg/mL (≈ 124 µM)
[3]; phosphate buffer, 37 °C, pH 6.8, aqueous buffer
  solubility at 24 h: 44.7 ± 2.17 µg/mL (≈ 121 µM)
[3]; water
  solubility at 24 h: 2380 ± 521 µg/mL (≈ 6430 µM)
[4]; 0.2 ng/mL, 6℃-6h
  Relative content: 91.78%
[4]; 0.2 ng/mL, 20℃-24h
  Relative content: 100.07%
[4]; 0.2 ng/mL, Freeze-thaw thrice
  Relative content: 100.00%
[4]; 0.5 ng/mL, 6℃-6h
  Relative content: 100.95%
[4]; 0.5 ng/mL, 20℃-24h
  Relative content: 101.06%
[4]; 0.5 ng/mL, Freeze-thaw thrice
  Relative content: 100.99%
[4]; 3.2 ng/mL, 6℃-6h
  Relative content: 107.49%
[4]; 3.2 ng/mL, 20℃-24h
  Relative content: 98.70%
[4]; 3.2 ng/mL, Freeze-thaw thrice
  Relative content: 98.63%
[5]
  AUC: 2.04 ng·h/mL
  Cmax: 0.5 ng/mL
